Source: patent US10273224B2, “Substituted pyrimidine compounds, compositions and medicinal applications thereof” (JUBILANT BIOSYS LIMITED, priority 2013, dated 2019)
Counter-ions that a name gives are not always drawn.

Biological target: T1, EGFR (L858R & T790M) (Homo sapiens, UniProt P00533, L858R/T790M)
T1 construct: GST; purchased Proqinase
Experiment: EGFR (L858R & T790M) inhibition assay, HTRF method
Conditions: biochemical HTRF; EGFR (T790M/L858R) 2.5 nM, ATP 5 μM, 60 min room temperature
Experimental: Example 25: Biological Activity: EGFR T790M Assay Protocol
The objective of the experiment is to find the IC50 for the compounds using HTRF method.
Reagents for Enzyme Assay:
1. Enzyme Assay Buffer: 60 mM HEPES (pH 7.4), 50 mM NaCl, 20 mM MgCl2, 5 mM MnCl2, filter using 0.2 µm pore size, store at 4° C.
Supplements (add fresh to the enzyme buffer): Make 1M DTT stock, 5% BSA stock and 0.1M Na3OV4 stored at 4° C. Enzyme assay buffer 50 ml, 1 M DTT 100 μl, 5% BSA 500 μl, 0.1M Na3OV4 50 μl.
2. GST-hEGFR (L858R), active: EGFR (T790M/L858R), active (Proqinase), 3.6 μM stock; 2.5 nM in final assay.
3. Gastrin Precusor-Biotinylated: Gastrin precursor (Tyr87) biotinylated peptide (EEAY*GWM), Cell Signaling Tech 1310, Lot-7, Want final 0.5 μM in assay
4. ATP: 10 mM stock in 100 μl Enzyme assay buffer pH 7.4 prepared freshly, want 5 μM in final assay.
5. Test compounds: Dissolve powders in 100% DMSO to a final stock concentration of 10 mM (volume in μL to add for 10 mM=mg powder×10^5/MW). Final comp concentration in the assay plate is starting at 10 μM.
1. HTRF buffer: 50 mM Tris-HCl, pH-7.5, 100 mM NaCl, 0.1% BSA, 0.05% Tween20, 0.5 mM EDTA, filter using 0.2 µm pore size, store at 4° C.
Phycolink® Streptavidin-Allophycocyanin (SA-APC) Prozyme, Cat. #PJ25S, Lot #896 085, 2.06 mg/mL, APC concentration is 11.6 μM, streptavidin concentration is 15.5 μM. Want 12 nM final in assay (based on streptavidin concentration).
2. Europium-W1024-PT-66 Anti Phospho Tyrosine Antibody: Perkin Elmer (AD0068), monoclonal IgG1 that recognizes phospho tyrosine peptide 100 μg/ml stock. Want 0.1 nM final in assay.
• 1. Make the compound dilution by TECAN as per the above scheme. • 2. Add 16 μl of diluted compound to the assay plate by using TECAN • 3. Add 10 μl of enzyme mix to each well except mins. • 4. Add 20 μl of substrate and ATP mix into each well of the assay plate manually. • 5. Incubate the plate at room temperature for 60 min with shaking. • 6. Meanwhile prepare the HTRF mix and add 75 μl to the HTRF plate. • 7. When the incubation is over, transfer 10 μl of the reaction mixture to the HTRF assay plate and incubate for 30 min at room temperature with shaking. • 8. Take the reading in Pherastar (ext 337 nm, em 665 & 620 nm). • 9. Analyze the results using Graphpad prism after calculation the z factor, signal window and % inhibition to get the IC50.
Compounds having IC50<10 nM are designated as “A”; 10-100 nM are designated as “B”; and >100 nM as “C”.

T1 sequence (P00533 25-1210 T790M/L858R): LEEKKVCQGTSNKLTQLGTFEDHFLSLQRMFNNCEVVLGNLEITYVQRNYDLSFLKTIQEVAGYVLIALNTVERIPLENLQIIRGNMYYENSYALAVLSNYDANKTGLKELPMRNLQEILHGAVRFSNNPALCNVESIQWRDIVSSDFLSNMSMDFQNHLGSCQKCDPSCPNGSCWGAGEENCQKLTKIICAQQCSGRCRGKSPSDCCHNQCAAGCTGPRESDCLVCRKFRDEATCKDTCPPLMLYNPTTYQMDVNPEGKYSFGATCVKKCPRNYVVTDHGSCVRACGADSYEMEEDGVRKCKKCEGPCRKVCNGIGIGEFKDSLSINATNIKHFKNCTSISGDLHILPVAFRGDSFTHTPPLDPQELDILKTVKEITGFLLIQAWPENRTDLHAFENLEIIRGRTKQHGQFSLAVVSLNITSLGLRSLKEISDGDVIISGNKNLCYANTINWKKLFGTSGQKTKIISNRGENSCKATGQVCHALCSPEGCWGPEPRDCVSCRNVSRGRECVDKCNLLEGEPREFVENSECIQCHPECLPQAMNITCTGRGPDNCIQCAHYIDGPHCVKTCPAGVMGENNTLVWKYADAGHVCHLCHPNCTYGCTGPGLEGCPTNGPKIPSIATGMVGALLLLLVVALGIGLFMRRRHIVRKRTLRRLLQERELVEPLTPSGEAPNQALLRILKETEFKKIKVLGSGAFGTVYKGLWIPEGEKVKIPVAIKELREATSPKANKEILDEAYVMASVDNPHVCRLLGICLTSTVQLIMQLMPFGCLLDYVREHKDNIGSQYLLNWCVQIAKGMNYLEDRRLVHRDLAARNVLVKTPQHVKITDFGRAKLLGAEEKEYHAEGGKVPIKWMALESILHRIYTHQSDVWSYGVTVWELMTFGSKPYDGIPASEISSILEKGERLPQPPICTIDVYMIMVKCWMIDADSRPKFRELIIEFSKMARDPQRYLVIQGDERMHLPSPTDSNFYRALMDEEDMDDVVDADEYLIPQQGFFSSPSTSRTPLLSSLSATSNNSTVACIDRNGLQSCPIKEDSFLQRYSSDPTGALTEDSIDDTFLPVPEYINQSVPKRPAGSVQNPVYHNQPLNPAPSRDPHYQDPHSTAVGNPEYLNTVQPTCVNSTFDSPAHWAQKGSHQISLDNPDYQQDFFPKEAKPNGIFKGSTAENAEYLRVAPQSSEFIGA

SMILES	IC50
CN1CCC(n2cc(Nc3ncc(Cl)c(Nc4cccc(NC(=O)C=C5CCCC5)c4)n3)cn2)CC1 [Compound I-30, N-(3-((5-chloro-2-((1-(1-methylpiperidin-4-yl)-1H-pyrazol-4-yl)amino)pyrimidin-4-yl)amino)phenyl)-2-cyclopentylideneacetamide]	> 100 nM
C=CC(=O)Nc1cccc(Nc2nc(Nc3cnn(C4COC4)c3)ncc2Cl)c1 [Compound I-31, N-(3-((5-chloro-2-((1-(oxetan-3-yl)-1H-pyrazol-4-yl)amino)pyrimidin-4-yl)amino)phenyl)acrylamide]	10 to 100 nM
C#CC(=O)Nc1cccc(Nc2nc(Nc3cnn(C)c3)ncc2Cl)c1 [Compound I-32, N-(3-((5-chloro-2-((1-methyl-1H-pyrazol-4-yl)amino)pyrimidin-4-yl)amino)phenyl)propiolamide]	10 to 100 nM
C=C(F)C(=O)Nc1cccc(Nc2nc(Nc3cnn(C)c3)ncc2Cl)c1 [Compound I-33, N-(3-((5-chloro-2-((1-methyl-1H-pyrazol-4-yl)amino)pyrimidin-4-yl)amino)phenyl)-2-fluoroacrylamide]	> 100 nM
C=CC(=O)Nc1cccc(Nc2nc(Nc3cn(C)nc3C)ncc2Cl)c1 [Compound I-34, N-(3-((5-chloro-2-((1,3-dimethyl-1H-pyrazol-4-yl)amino)pyrimidin-4-yl)amino)phenyl)acrylamide]	< 10 nM
C=CC(=O)Nc1cc(Cl)cc(Nc2nc(Nc3cnn(C)c3)ncc2Cl)c1 [Compound I-35, N-(3-chloro-5-((5-chloro-2-((1-methyl-1H-pyrazol-4-yl)amino)pyrimidin-4-yl)amino)phenyl)acrylamide]	< 10 nM
C=CC(=O)Nc1cccc(Nc2nc(Nc3cnn(C4CCC(O)C4)c3)ncc2Cl)c1 (stereo not drawn) [Compound I-36, N-(3-((5-chloro-2-((1-(3-hydroxycyclopentyl)-1H-pyrazol-4-yl)amino)pyrimidin-4-yl)amino)phenyl)acrylamide]	10 to 100 nM
C=CC(=O)Nc1cccc(Nc2nc(Nc3cnn(C4CCC(O)C4)c3)ncc2F)c1 (stereo not drawn) [Compound I-37, N-(3-((5-fluoro-2-((1-(3-hydroxycyclopentyl)-1H-pyrazol-4-yl)amino)pyrimidin-4-yl)amino)phenyl)acrylamide]	> 100 nM
C=CC(=O)Nc1cccc(Nc2nc(Nc3cnn(C4CCCC(O)C4)c3)ncc2Cl)c1 (stereo not drawn) [Compound I-38, N-(3-((5-chloro-2-((1-(3-hydroxycyclohexyl)-1H-pyrazol-4-yl)amino)pyrimidin-4-yl)amino)phenyl)acrylamide]	> 100 nM
C=CC(=O)Nc1ccc(F)c(Nc2nc(Nc3cnn(C)c3)ncc2Cl)c1 [Compound I-39, N-(3-((5-chloro-2-((1-methyl-1H-pyrazol-4-yl)amino)pyrimidin-4-yl)amino)-4-fluorophenyl)acrylamide]	< 10 nM
C=CC(=O)Nc1cccc(Nc2nc(Nc3ncc(N4CCN(C)CC4)s3)ncc2Cl)c1 [Compound I-40, N-(3-((5-chloro-2-((5-(4-methylpiperazin-1-yl)thiazol-2-yl)amino)pyrimidin-4-yl)amino)phenyl)acrylamide]	10 to 100 nM
C=CC(=O)Nc1cccc(Nc2nc(Nc3nnc(N4CCN(C)CC4)s3)ncc2Cl)c1 [Compound I-41, N-(3-((5-chloro-2-((5-(4-methylpiperazin-1-yl)-1,3,4-thiadiazol-2-yl)amino)pyrimidin-4-yl)amino)phenyl)acrylamide]	10 to 100 nM
C=CC(=O)Nc1cccc(Nc2nc(Nc3cc(CN4CCC4)n(C)n3)ncc2Cl)c1 [Compound I-42, N-(3-((2-((5-(azetidin-1-ylmethyl)-1-methyl-1H-pyrazol-3-yl)amino)-5-chloropyrimidin-4-yl)amino)phenyl)acrylamide, acetate salt]	> 100 nM
C=CC(=O)Nc1cccc(Nc2nc(Nc3cnn(C4CCNC(=O)C4)c3)ncc2Cl)c1 (stereo not drawn) [Compound I-43, N-(3-((5-chloro-2-((1-(2-oxopiperidin-4-yl)-1H-pyrazol-4-yl)amino)pyrimidin-4-yl)amino)phenyl)acrylamide]	10 to 100 nM
C=CC(=O)Nc1cccc(Nc2nc(Nc3nnc(C(F)(F)F)s3)ncc2Cl)c1 [Compound I-44, N-(3-((5-chloro-2-((5-(trifluoromethyl)-1,3,4-thiadiazol-2-yl)amino)pyrimidin-4-yl)amino)phenyl)acrylamide]	> 100 nM
C=CC(=O)Nc1cccc(Nc2nc(Nc3cnn(C4CCOCC4)c3)ncc2Cl)c1 [Compound I-45, N-(3-((5-chloro-2-((1-(tetrahydro-2H-pyran-4-yl)-1H-pyrazol-4-yl)amino)pyrimidin-4-yl)amino)phenyl)acrylamide]	10 to 100 nM
C=CC(=O)Nc1cccc(Nc2nc(Nc3cc(CN4CCOCC4)n(C)n3)ncc2Cl)c1 [Compound I-46, N-(3-((5-chloro-2-((1-methyl-5-(morpholinomethyl)-1H-pyrazol-3-yl)amino)pyrimidin-4-yl)amino)phenyl)acrylamide]	> 100 nM
C=CC(=O)Nc1cccc(Oc2nc(Nc3cnn(CCO)c3)ncc2Cl)c1 [Compound I-47, N-(3-((5-chloro-2-((1-(2-hydroxyethyl)-1H-pyrazol-4-yl)amino)pyrimidin-4-yl)oxy)phenyl)acrylamide]	< 10 nM
C=CC(=O)Nc1cccc(Nc2nc(Nc3cnn(C4CC5CCC(C4)N5C)c3)ncc2Cl)c1 (stereo not drawn) [Compound I-48, N-(3-((5-chloro-2-((1-(8-methyl-8-azabicyclo[3.2.1]octan-3-yl)-1H-pyrazol-4-yl)amino)pyrimidin-4-yl)amino)phenyl)acrylamide]	10 to 100 nM
C=CC(=O)Nc1cccc(Nc2nc(Nc3cnn(C4CCOC4)c3)ncc2Cl)c1 (stereo not drawn) [Compound I-49, N-(3-((5-chloro-2-((1-(tetrahydrofuran-3-yl)-1H-pyrazol-4-yl)amino)pyrimidin-4-yl)amino)phenyl)acrylamide]	10 to 100 nM
CN1CCC(n2cc(Nc3ncc(F)c(Nc4cccc(NC(=O)C=C5CCCCC5)c4)n3)cn2)CC1 [Compound I-50, 2-cyclohexylidene-N-(3-((5-fluoro-2-((1-(1-methylpiperidin-4-yl)-1H-pyrazol-4-yl)amino)pyrimidin-4-yl)amino)phenyl)acetamide]	> 100 nM
C/C=C/C(=O)Nc1cccc(Nc2nc(Nc3cnn(C4CCN(C)CC4)c3)ncc2Cl)c1 [Compound I-51, (E)-N-(3-((5-chloro-2-((1-(1-methylpiperidin-4-yl)-1H-pyrazol-4-yl)amino)pyrimidin-4-yl)amino)phenyl)but-2-enamide]	> 100 nM
C=CC(=O)Nc1cccc(Nc2nc(Nc3cnn(Cc4cccc(C)n4)c3)ncc2Cl)c1 [Compound I-52, N-(3-((5-chloro-2-((1-((6-methylpyridin-2-yl)methyl)-1H-pyrazol-4-yl)amino)pyrimidin-4-yl)amino)phenyl)acrylamide]	> 100 nM
CN(C)C/C=C/C(=O)Nc1cccc(Nc2nc(Nc3cnn(C4CCN(C)CC4)c3)ncc2Cl)c1 [Compound I-53, (E)-N-(3-((5-chloro-2-((1-(1-methylpiperidin-4-yl)-1H-pyrazol-4-yl)amino)pyrimidin-4-yl)amino)phenyl)-4-(dimethylamino)but-2-enamide]	> 100 nM
C=CC(=O)Nc1ccc(OC2CCOC2)c(Nc2nc(Nc3cnn(C)c3)ncc2Cl)c1 (stereo not drawn) [Compound I-54, N-(3-((5-chloro-2-((1-methyl-1H-pyrazol-4-yl)amino)pyrimidin-4-yl)amino)-4-((tetrahydrofuran-3-yl)oxy)phenyl)acrylamide]	> 100 nM
C=CC(=O)Nc1cc(Nc2nc(Nc3cnn(C)c3)ncc2Cl)ccc1OC1CCOC1 (stereo not drawn) [Compound I-55, N-(5-((5-chloro-2-((1-methyl-1H-pyrazol-4-yl)amino)pyrimidin-4-yl)amino)-2-((tetrahydrofuran-3-yl)oxy)phenyl)acrylamide]	> 100 nM
C=CC(=O)Nc1cccc(C(C)Nc2nc(Nc3cnn(C)c3)ncc2Cl)c1 (stereo not drawn) [Compound I-56, N-(3-(1-((5-chloro-2-((1-methyl-1H-pyrazol-4-yl)amino)pyrimidin-4-yl)amino)ethyl)phenyl)acrylamide]	> 100 nM
